Laboratory results as given in patent US8013190B2, “Chemical composition with borane clusters for use as an HIV protease inhibitor” (Vysoka Skola Chemicko-Technologicka V Praze, priority 2004, dated 2011).
Like-named read-outs stand apart in the source and are kept apart here.

What was measured:
[1] = test system: HIV proviral clone NL 4-3; test: HIV infectivity inhibition in tissue cultures transfected with proviral clone NL4-3, titration on TZM reporter cells; assay type: cell-based; conditions: for effect on virus infectivity: 293 T cells transfected by NL 4-3, FIG. 5
Protocol: The antiviral activity of compounds GB-8, GB-12 and GB-16 in tissue cultures was analyzed using two variations of a published procedure (Benyoucef S, Hober D, Shen L, Ajana F, Gerard Y, Bocket-Mouton L, Mouton Y, Wattre P. (1996) Microbiol Immunol. 40(5), 381-8). The production of infectious HIV particles and influences of HIV protease inhibitors on the infectivity was directly determined by these assays.
For testing of compounds GB-8, GB-12 and GB-16, HeLa cells were transfected by DNA encoding pNL-43 strain of HIV virus that contained beta-galactosidase gene in the site of viral nef gene. All transfections were performed in duplicate. Medium was replaced the next day following the transfection, and protease inhibitors dissolved in DMSO were added into fresh medium. The control was incubated in the same DMSO concentration as tested cells. The supernatant of transfected cells was used in next round for reporter cells infection. Infectivity was quantified by enzyme beta-galactosidase activity in infected cells and the infected cells were visualised using chromogenic beta-galactosidase substrate (X-gal). Viral proteins of newly created virions were separated by SDS PAGE and immunochemically visualised using antibodies against HIV capsid protein (Western blot).
In paralel experiments, HIV was produced in 293 T cells transfected by proviral clone NL 4-3. All transfections were performed in duplicate. Medium was replaced the next day following the transfection, and protease inhibitors dissolved in DMSO were added into fresh medium. The control was incubated in the same DMSO concentration as tested cells. Viral infectivity was quantified by titration of the cell supernatant by TZM cell (reporter cells bearing in their genome LTR promotor from HIV bound with beta-galactosidase gene, activated by Tat protein produced by the virus). After two days following the infection the reporter cells were lysed and fixed by methanol/acetone mixture. Beta-galactosidase activity of infected cells was visualised by blue color after chromogenic substrate X-gal addition.

wild type HIV-1 protease = target: T1, wild type HIV-1 protease (Human immunodeficiency virus type 1 group M subtype B, UniProt P12497); test: Inhibition of pure recombinant HIV protease with chromogenic peptide substrate (spectrophotometric); assay type: biochemical
T1 construct: using pure recombinant HIV protease and chromogenic peptide substrate
Protocol: (§1) Initially, known and novel compounds were tested as to their ability to inhibit specific activitity of HIV protease in vitro using pure recombinant HIV protease and chromogenic peptide substrate derived from amino acid sequence of one of the sites of cleavage of viral polyprotein. Testing was performed using the method published by one of the co-inventors of this invention (Konvalinka, J., Litera, J., Weber, J., Vondrásek, J., Hradilek, M., Soucek, M., Pichová, I., Majer, P., Strop, P., Sedlácek, J., Heuser, A. -M., Kottler, H. and Kraeusslich, H. -G. (1997). Eur. J. Biochem. 250, 559-566). […] The reaction course is observed spectrophotometrically as decrease of the absorbance at 305 nm.
The mechanism of action of tested compounds (inhibition type) were determined from dependence of initial reaction rate on substrate concentration at different inhibitor concentrations (Lineweaver-Burke plot). Dependence of initial enzyme reaction rate on substrate concentration is measured at various inhibitor concentrations (here 0 and 15 μM). The measurements were performed at pH 4.7, 37° C. in 0.1 M acetate buffer containing 0.3M NaCl. y axis: reciprocal value of initial enzyme reaction rate, x axis: reciprocal value of substrate concentration (mol/dm^3).

mutant HIV-1 PR 3/1 = test: Inhibition of recombinant protease, chromogenic substrate; assay type: biochemical
Protocol: as §1, with “nm. IC50 values of tested compounds were calculated from experimental data, as taught in (Majer, P., Urban, J., Gregorová, E., Konvalinka, J., Novek, P., Stehlíková, J., Andreánsky, M., Sedlácek, J. and Strop, P. (1993) Arch.Biochem.Biophys. 304, 1-8) and are shown in Table 1.” for “nm.”
(§2) Inhibition testing of GB-16 was performed also for wild type HIV-2 protease, mutant HIV-1 PR 3/1 and cathepsin D. Results are shown in Table 2.

wild-type HIV-2 PR = target: T2, wild-type HIV-2 PR (Human immunodeficiency virus type 2 subtype A, UniProt P04584); test: as above; assay type: biochemical
T2 construct: performed also for wild type HIV-2 protease, mutant HIV-1 PR 3/1 and cathepsin D
Protocol: as §1, with “nm. IC50 values of tested compounds were calculated from experimental data, as taught in (Majer, P., Urban, J., Gregorová, E., Konvalinka, J., Novek, P., Stehlíková, J., Andreánsky, M., Sedlácek, J. and Strop, P. (1993) Arch.Biochem.Biophys. 304, 1-8) and are shown in Table 1.” for “nm.”
as §2

cathepsin D = cathepsin D (Homo sapiens, UniProt P07339); test: as above; assay type: biochemical
Protocol: as §1, with “nm. IC50 values of tested compounds were calculated from experimental data, as taught in (Majer, P., Urban, J., Gregorová, E., Konvalinka, J., Novek, P., Stehlíková, J., Andreánsky, M., Sedlácek, J. and Strop, P. (1993) Arch.Biochem.Biophys. 304, 1-8) and are shown in Table 1.” for “nm.”
as §2

[2] = target: T3, HIV PR K4 (L10I, L24I, L33F, M46L, I54V, L63P, A71V, V82A, I84V) (Human immunodeficiency virus type 1 group M subtype B, UniProt P12497, A559V/I542V/I572V/L498I/L512I/L521F/L551P/M534L/V570A); assay type: biochemical, HIV-1; conditions: read-out: Inhibition constants Ki
T3 construct: using pure recombinant HIV protease and chromogenic peptide substrate
Protocol: as §1

[3] = target: T4, HIV PR 15 (M46I, A71V, V82T, I84V) (Human immunodeficiency virus type 1 group M subtype B, UniProt P12497, A559V/I572V/M534I/V570T); assay type: biochemical, HIV-1; conditions: read-out: Inhibition constants Ki
T4 construct: using pure recombinant HIV protease and chromogenic peptide substrate
Protocol: as §1

[4] = target: T5, HIV PR 5/1 (L10I, I15V, E35D, N37S, R41K, I62V, L63P, A71V, G73S, L90M) (Human immunodeficiency virus type 1 group M subtype B, UniProt P12497, A559V/E523D/G561S/I503V/I550V/L498I/L551P/L578M/N525S/R529K); assay type: biochemical, HIV-1; conditions: read-out: Inhibition constants Ki
T5 construct: using pure recombinant HIV protease and chromogenic peptide substrate
Protocol: as §1

virus strain NL4-3 = test: HIV infectivity inhibition in PM1 cell cultures infected by NL4-3, titration on TZM-cells; assay type: cell-based; conditions: 6,6 to 60 μM, 40 h
Protocol: For testing of compound GB-48, PM1 cell cultures infected by virus strain NL4-3 were split 2 days post infection 1 to 10 with fresh, uninfected cells. To remove unbound virus cells were washed with pre-warmed medium four hours post infection. Cells were subsequently incubated for 40 h with a GB-48 dissolved in DMSO at a final concentration from 0.74 to 60 μM. Control cells were incubated with the same amount of DMSO as the GB-48 treated cells. To harvest the free virus cells were centrifuged at 1500 rpm for 5 min and 10 μl of the supernatants were used for titration. Changes in viral infectivity were analysed by titration of the supernatants on TZM-cells as described above. Two days post infection TZM-cells were lysed and fixed with methanol/aceton. The beta-galactosidase activity of infected cells was visualised by blue stain upon X-Gal addition. All titrations were done in duplicate assays. The viral titer and standard deviation was calculated from three independent titrations. Example of the activity testing is given on FIG. 6. […] At these concentrations drops in viral titer of at least 3 orders of magnitude in virus infectivity were observed.

[5] = wild type HIV-1 protease, pH 4.7, Table 1 values in μM
[6] = wild type HIV-1 protease, pH 4.7, Table 1 values in nM
[7] = wild type, Table 3, read-out: Inhibition constants Ki

cathepsin D, sequence (P07339 65-412, species assumed): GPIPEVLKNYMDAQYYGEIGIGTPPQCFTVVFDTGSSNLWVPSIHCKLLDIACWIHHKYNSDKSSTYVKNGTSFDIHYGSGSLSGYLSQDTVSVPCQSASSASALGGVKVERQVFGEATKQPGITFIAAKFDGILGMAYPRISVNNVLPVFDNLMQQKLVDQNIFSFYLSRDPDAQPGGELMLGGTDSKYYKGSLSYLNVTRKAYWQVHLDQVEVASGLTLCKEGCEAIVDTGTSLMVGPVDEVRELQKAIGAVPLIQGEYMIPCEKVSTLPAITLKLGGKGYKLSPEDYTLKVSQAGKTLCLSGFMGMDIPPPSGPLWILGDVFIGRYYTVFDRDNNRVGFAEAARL
T2 sequence (P04584 514-612 limits assumed): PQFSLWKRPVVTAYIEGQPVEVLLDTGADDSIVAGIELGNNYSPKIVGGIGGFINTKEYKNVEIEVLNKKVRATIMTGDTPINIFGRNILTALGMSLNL

[8,8′-μ-O-(1,2-C2B9H10)(1′,2′-C2B9H10)-3,3′-Co]Na [GB-12]
effect on virus infectivity [1]: block the virus infectivity
IC50 (wild type HIV-1 protease; [5]): 5.2 µM

[8-(O-P(═O)(OH)2)-(1,2-C2B9H10)(1′,2′-C2B9H11)-3,3′-Co]Na.nH2O [GB-16]
HIV infectivity, % of the initial value ([1]; 10 μM solution, 293 T cells / TZM reporter cells): ~27%
effect on virus infectivity [1]: block the virus infectivity
mechanism of action (inhibition type), Lineweaver-Burke plot (wild type HIV-1 protease; inhibitor 0 and 15 μM, pH 4.7, 37° C.): competitive inhibitor
IC50 (wild type HIV-1 protease; [5]): 6.2 µM
IC50 (wild type HIV-1 protease; wild-type HIV-1 PR, Table 2): 6.2 µM
Ki (wild type HIV-1 protease; wild-type HIV-1 PR, Table 2, read-out: Ki): 16300 nM
IC50 (mutant HIV-1 PR 3/1): 13400 nM
Ki (mutant HIV-1 PR 3/1): 3600 nM
IC50 (wild-type HIV-2 PR): 15400 nM
Ki (wild-type HIV-2 PR): 7400 nM
IC50 (cathepsin D): 32900 nM
Ki (cathepsin D): 17200 nM

[8-(OH-1,2-C2B9H10)(1′,2′-C2B9H11)-3,3′-Co]Na.nH2O [GB-8]
effect on virus infectivity [1]: block the virus infectivity
IC50 (wild type HIV-1 protease; [5]): 13.5 µM

[(1,2-C2B9H10)-3,3′-Co(1′,2′-C2B9H11)-8-(OCH2CH2)2NH(CH2CH2CH2CH3)-CH2CH2OCH2CH2-8″-O-(1″,2″-C2B9H10)-3″,3′″-Co(1′″,2′″-C2B9H11)]Na [GB-48]
Ki [2]: 24 nM
Ki [3]: 9 nM
Ki [4]: 4.6 nM
IC50 (wild type HIV-1 protease; [6]): 0.1 µM
Ki (wild type HIV-1 protease; [7]): 2.2 nM
drops in viral titer (virus strain NL4-3): at least 3 orders of magnitude
effect on virus infectivity (virus strain NL4-3): strongly inhibited virus infectivity

[(1,2-C2B9H10)-3,3′-Co(1′,2′-C2B9H11)-8-(OCH2CH2)2NH-CH2CH2OCH2CH2-8″-O-(1″,2″-C2B9H10)-3″,3′″-Co(1′″,2′″-C2B9H11)]Na [GB-80]
Ki [2]: 13 nM
Ki [3]: 22 nM
Ki [4]: 40 nM
IC50 (wild type HIV-1 protease; [6]): 0.14 µM
Ki (wild type HIV-1 protease; [7]): 4.9 nM

[(8-(C6F5O-(CH2)5O)-1,2-C2B9H10)(1′,2′-C2B9H11)-3,3′-Co]Na [GB-54]
IC50 (wild type HIV-1 protease; [6]): 0.2 µM

[(8-(C6F5O-(CH2-CH2O)2)-1,2-C2B9H10)(1′,2′-C2B9H11)-3,3′-Co]Na [GB-45]
IC50 (wild type HIV-1 protease; [6]): 0.16 µM

[(8-(C6H4(CO)(CO)N-(CH2-CH2O)2)-1,2-C2B9H10)(1′,2′-C2B9H11)-3,3′-Co]Na [GB-64]
IC50 (wild type HIV-1 protease; [6]): 0.84 µM

[(8-(C6H4(CO)(SO2)N-(CH2-CH2O)2)-1,2-C2B9H10)(1′,2′-C2B9H11)-3,3′-Co]Na [GB-63]
IC50 (wild type HIV-1 protease; [6]): 0.13 µM

[(8-(C6H5)-(CH2-CH2O)2)-1,2-C2B9H10)(1′,2′-C2B9H11)-3,3′-Co]Na [GB-40]
IC50 (wild type HIV-1 protease; [5]): 1.2 µM

[(8-(NH2(C6H5CH2)-(CH2-CH2O)2)-1,2-C2B9H10)(1′,2′-C2B9H11)-3,3′-Co] [GB-103]
IC50 (wild type HIV-1 protease; [5]): 1.4 µM

[(8-(NH2(CH2CH2CH2CH3)-(CH2-CH2O)2)-1,2-C2B9H10)(1′,2′-C2B9H11)-3,3′-Co] [GB-102]
IC50 (wild type HIV-1 protease; [5]): 2.2 µM

[(8-(NH3-(CH2-CH2O)2)-1,2-C2B9H10)(1′,2′-C2B9H11)-3,3′-Co] [GB-69]
IC50 (wild type HIV-1 protease; [5]): 2.2 µM

[(8-(calix[4]arene-O-(CH2-CH2O)2)-1,2-C2B9H10)(1′,2′-C2B9H11)-3,3′-Co]Na [GB-72]
IC50 (wild type HIV-1 protease; [6]): 0.21 µM

[(8-Cl-1,2-C2B9H10)(8′-Cl-1′,2′-C2B9H10)-3,3′-Co]Na [GB-96]
IC50 (wild type HIV-1 protease; [5]): 1.08 µM

[(8-HO-(CH2-CH2O)2-1,2-C2B9H10)(1′,2′-C2B9H11)-3,3′-Co]Na [GB-1]
IC50 (wild type HIV-1 protease; [5]): 6.1 µM

[(8-I-1,2-C2B9H10)(8′-I-1′,2′-C2B9H10)-3,3′-Co]Na [GB-97]
IC50 (wild type HIV-1 protease; [6]): 0.87 µM

[((1,2-C2B9H10)-3,3′-Co(1′,2′-C2B9H11)-8-(OCH2CH2)2O)3-NH]Na2 [GB-79]
IC50 (wild type HIV-1 protease; [6]): 0.13 µM

[(C2B9H10)2-3-Fe]Na.4H2O [GB-23]
IC50 (wild type HIV-1 protease; [6]): 0.55 µM
